Key:
phage (viral) infections = conditions: tissue cultures, p-benzoquinone generated in situ; cited from earlier work
liver = conditions: cited from earlier work
fungi = conditions: cited from earlier work
Salmonella typhosa = conditions: 1911; cited from earlier work
[1] = Spectral study of rearrangement/reactions with nucleophiles, reducing and oxidizing agents; format: physicochemical; conditions: for Final Maximum (nm): pH 8-9, ten-fold excess
Method: In order to characterize the products of hydrolysis of AA-CHP's, the hydrolysis of Leu-CHP by LAP was studied by absorption spectrophotometry. […] This was also true for the new maximum at 350 nm and for a second new "maximum" which appeared as a low, broad "peak" merging with 350 peak and centered at about 400 nm. However, by 22 minutes (not shown) the absorbance at 300 and 400 nm had diminished in intensity while the 350 maximum continued to increase, albeit at a slower rate. At pH 7.0 (FIG. 8B), the absorbance at 300 nm continued to slowly increase in intensity even up to 90 minutes after dissolving CHP-OEt (0.2 mg) in DMSO (0.02 ml) into 0.05M Phosphate buffer (3 ml). Furthermore, a second maximum at 350 nm developed but it remaind smaller in intensity than the 300 nm peak.
Table 2 summarizes the results of several separate experiments involving the reactions of CHP-OEt, CHA-OEt, pIQ-OEt and pBQ (0.5-1.0 mM) with various nucleophiles (lysine, 3-MPA) reducing agents (NaBH4, 3-MPA) and oxidizing agents (NaIO4, O2) in ten-fold molar excess in Tris-HCl buffer (0.05M, pH 9.0).
In these studies, CHP-OEt, CHA-OEt and pBQ* were all pure compounds, thus, their absorption could be unequivocably assigned, pIQ-OEt was generated by the autoxidation of CHA-OEt in solution and its presence was noted by the appearance of one absorbance maximum at 400 nm and the development of a distinct yellow color to a previously clear solution of CHA-OEt. […] On the other hand, there was a dissimilarity between the spectra of CHP-OEt and CHA-OEt. CHA-OEt was oxidized by O2 or NaIO4 to the pIQ-OEt with a λmax =400 nm whereas NaIO4 had no effect on the rate or nature of spectral change that occurred when . . .

blue-green algae = conditions: cited from earlier work

In the case of `Oc1ccc(O)cc1` [p-benzohydroquinone], the “prevention of phage (viral) infections” value (phage (viral) infections) is given as “prevent phage (viral) infections from proliferating”.

For `CC(=O)N=C1C=CC(=O)C=C1` [N-acetyl-p-iminobenzoquinone], the “toxic effects in the liver” value (liver) is given as “responsible for the toxic effects in the liver”.

In the case of `O=C1C(Cl)=C(Cl)C(=O)C(Cl)=C1Cl` [chloranil, 2,3,5,6-tetrachloro-1,4-benzoquinone], the antifungal properties (fungi) is listed as “marked antifungal properties”.

For `O=C1C=CC(=O)C=C1` [pBQ, p-Benzoquinone, reference compound], the bactericidal activity (Salmonella typhosa) is given as “potent bactericidal substance”, the “Final Maximum (nm)” value ([1]; compound added: 3-MPA) is given as 300 nm and the “Final Maximum (nm)” value ([1]; compound added: Lysine) is given as 350 nm. The “Initial Maximum (nm)” value ([1]; pH 8-9) was 240 nm, the “peak appearing only after several hours with 3-MPA” value ([1]; ten-fold excess 3-MPA, pH 9.0) was 350 nm and the “initial peak with lysine (rapidly diminished)” value ([1]; ten-fold excess lysine, pH 9.0) was 300 nm.

In the case of `O=C1C(Cl)=C(Cl)C(=O)c2ccccc21` [2,3-dichloro-1,4-naphthoquinone], the “inhibition of blue-green algae” value (blue-green algae) is listed as “inhibited”.

From US4459227A, “Para-hydroxyphenylhydrazines as in situ precursors of iminoquinones and quinones” (Duke University, priority 1981, dated 1984)
